Results from patent US9585877B2, “Methods of maintaining, treating or improving cognitive function” (Forum Pharmaceuticals, Inc., priority 2012, dated 2017).

Legend:
[1] = test system: subjects with mild-to-moderate Alzheimer's disease; assay: Clinical study, Controlled Oral Word Association Test (COWAT); assay type: in vivo, human; conditions: 2 mg dose versus Placebo
Experimental: A double-blind study of 3 doses of the Test Composition or placebo in subjects with mild-to-moderate Alzheimer's disease, with or without receiving a concomitant AChEI for 24 weeks (168 days) after a 7 day placebo run-in period.
Total number of subjects in the safety population was 409 subjects that were dosed once-daily with a dosing-capsule for a period of 168 days. The subjects dosed, and the particular dosing, included: 104 subjects dosed with Placebo capsule; and 305 subjects dosed with Test Compound (104 subjects with 0.3 mg capsules; 101 subjects with 1 mg capsules; and 100 subjects with 2 mg capsules).
The population included generally healthy male or female subjects, aged 50 to ≦85 years, with mild-to-moderate Alzheimer's disease, consistent with criteria defined by a Work Group of the National Institute of Neurological and Communicative Disorders and Stroke—Alzheimer's Disease and Related Disorders Association, of mild to moderate severity, with a Mini-Mental State Examination score (MMSE) 14 and ≦24, and a Clinical Dementia Rating Scale Sum of the Boxes (CDR-SB) score of 2. […]
The COWAT test includes (1) asking the subject to name words beginning with a specific letter (e.g., F, A, S), (2) each of 3 trials is timed for 60 seconds, and (3) the score is calculated by the number of new words beginning with the assigned letter.

[2] = test system: subjects with mild-to-moderate Alzheimer's disease; assay: Responder analysis: PK/PD effects (ADAS-Cog); assay type: in vivo, human
Excerpt: The response by plasma level of Test Compound was also investigated. A ‘responder’ definition of >3 pt ADAS-Cog effect was utilized. The plasma levels of responders and nonresponders informed a logistic regression model. […] FIG. 12 illustrates the mean plasma concentration levels (including the 95% confidence levels and the measured extremes) of Test Compound, and FIG. 13 illustrates the Exposure Response analysis, using plasma concentration levels of Test Compound and ADAS-Cog-13 changes. The relationship between dose and likelihood of clinical response, as defined by either an ADAS-Cog effect ≧3 points, or ≧2 points, is summarized in Table 19: […]

Cl.O.O=C(N[C@H]1CN2CCC1CC2)c1cc2cccc(Cl)c2s1 [Test Compound, (R)-7-chloro-N-(quinuclidin-3-yl)benzo[b]thiophene-2-carboxamide, hydrochloride, monohydrate]
COWAT Effect Size [1]: 0.35
Responders, ADAS-Cog (≧2 points) ([2]; 0.3 mg): 31%
Responders, ADAS-Cog (≧3 points) ([2]; 0.3 mg): 25%
Responders, ADAS-Cog (≧2 points) ([2]; 1 mg): 33%
Responders, ADAS-Cog (≧3 points) ([2]; 1 mg): 28%
Responders, ADAS-Cog (≧2 points) ([2]; 2 mg): 51%
Responders, ADAS-Cog (≧3 points) ([2]; 2 mg): 45%
Relationship of plasma level and likelihood of being a responder ([2]; responder >3 pt ADAS-Cog effect, logistic regression model, p=0.003): significant plasma level/exposure response relationship exists
